According to patent US9730906B2, “α-derivatives of cis-monounsaturated fatty acids for use as medicines” (UNIVERSITAT DE LES ILLES BALEARS, priority 2008, dated 2017):

Experiments:
A549 cells = test: Growth/viability of A549 lung cancer cells in culture (cell count); format: cell-based, human; design: key to Anti-tumour effect: + [inhibition of growth]; ++ [total halt of growth]; +++ [total removal of tumour cells]; conditions: for IC50: concentration that reduces the number of cells to half
In short: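 A549 cells were grown in RPMI with 10% serum at 37 °C under 5% CO2 and exposed to fatty-acid derivatives at 0–400 μM, or at 150 μM for 48 h. Cell number was counted by flow cytometry and expressed as percent of untreated control.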

SF767 human tumour cells = test: Growth of SF767 tumour cells in culture; format: cell-based; design: key to Anti-tumour effect: + [inhibition of growth]; ++ [total halt of growth]; +++ [total removal of tumour cells]; key to Mechanism of action: P [anti-proliferative]; D [differentiation]; A [apoptosis]; conditions: for IC50: concentration that reduces the number of cells to half
Protocol: In a second experimental series, designed to discover whether these molecules are effective in treatment of different types of tumours, the effect of OHOD at various concentrations on human cells of different types of cancer was studied. These experiments were performed as described before, except that the M220 and HT-29 cell lines were cultured in DMEM medium and the MDA-MB-231 line was incubated in Leibowitz L-15 medium supplemented with 15% foetal bovine […]. […] Where the nature of the tumour process requires, application can be topical (use on the skin of active products for the treatment of melanoma and other cutaneous abnormalities of cancerous nature), which can be considered as cosmetic treatments when attempts are made to correct aesthetic defects.

[1] = Levels of cholesterol, triglycerides and glucose in rats after oral treatment; format: in vivo, rat; conditions: for % control CHO (cholesterol) / % control TG (triglycerides): rats, daily dose of 600 mg/kg oral, untreated controls = 100%
Protocol: FIG. 13. The four bars, from left to right respectively, show the effect of treatments with vehicle (control, first bar), OHOD at 200 mg/kg (second bar), OHOD at 400 mg/kg (third bar) and OHOD at 600 mg/kg (fourth bar) on the cholesterol levels (group of four bars to the left), triglycerides (group of four bars in the middle) and glucose (group of four bars to the right). The treatments were oral in all cases and were maintained for 30 days. The values indicated are the average obtained in 6 animals per group.
FIG. 14. Effect of treatment with vehicle (control) or with the fatty acids of the invention (600 mg/kg) on the levels of cholesterol, triglycerides and glucose. The values indicated are the average of the values obtained in 6 animals. Each group of three bars represents treatment with a different fatty acid with the left bar corresponding to cholesterol, the middle bar to triglycerides and the right bar to glucose.
Metabolic diseases form a set of pathologies characterised by the accumulation or deficit of certain molecules (cholesterol, triglycerides, glucose, etc.) in the serum or tissues. These changes are the reflection of dysfunctions that are normally associated with errors in the activity of certain enzymes or in the control of these proteins. Among the most important metabolopathies are hypercholesterolemia (elevated levels of cholesterol), hypertriglyceridemia (elevated levels of triglycerides) and diabetes (elevated levels of glucose). These pathologies have high rates of incidence, morbidity and mortality, so that treatment is a first order necessity. […] For these experiments, the dose of fatty acid indicated (0, 200, 400 and 600 mg/kg) was supplied daily via the oral route. At the end of the treatment (30 days), blood was sampled from control and treated animals (n=6) and the levels of cholesterol, triglycerides and glucose were determined using standard colorimetric methods.
In a further experiment, the effect of various molecules at a single dose (600 mg/kg) was investigated. […] In this sense, modification on the α-carbon and the double bond in cis configuration are crucial elements for producing the therapeutic effect indicated above. […] Finally, the effect of α-derivatives of cis-monounsaturated fatty acids on the prevention of obesity was investigated. For this, a model of rat obesity induced by a cafeteria diet, where the hypercaloric food increases the weight of the animals very markedly, was used. There were various experimental groups (see Table 3), each of which consisted of 6 female Wistar Kyoto rats of 250-300 g in weight. All the animals received a standard diet for 2 weeks. In addition, 2 of the groups received an oral preventative pre-treatment of vehicle and the other groups received 300 mg/kg of the fatty acids indicated below. Afterwards, one of the control groups was maintained on a standard diet (lean control) and the other was fed on a cafeteria diet (obese control). The treated animal groups were fed on the cafeteria diet. Preventative pre-treatment was maintained for all the groups. After two weeks on these diets, the lean control group had increased their body weight by an average of 16±16 g, while the obese control group had increased their body weight by an average of 43±17 g (statistically significance difference, p<0.01).

[2] = Body weight of rats on cafeteria diet, no pre-treatment (Table 5); format: in vivo, rat; conditions: cafeteria diet for 2 weeks, 300 mg/kg daily oral, no pre-treatment
Text: The weight of treated animals was statistically less than the weight of obese control rats and statistically indistinguishable from that of lean control rats.

hypertensive rats = test: Arterial pressure in hypertensive rats after 8-day treatment (Table 5); format: in vivo, rat; conditions: arterial pressure, hypertensive rats, 8-day treatment, 400 mg/kg oral
[3] = OHOD 200, 400, 600 mg/kg oral daily, 30 days, Sprague-Dawley rats, p<0.05

| IC50 (A549 cells) [µM] | IC50 (SF767 human tumour cells) [µM] | SMILES | % control CHO (cholesterol) [1] [% control] | % control TG (triglycerides) [1] [% control] | Body weight (g) (control = 311 g) [2] | PA (control 214 mmHg) (hypertensive rats) [mmHg] | Anti-tumour effect (A549 cells; A549, Lung) | Mechanism of action (A549 cells; A549, Lung) | effect on tumour cells at 200 to 400 μM (A549 cells; Doses of 200 to 400 μM, A549) | Anti-tumour effect (SF767 human tumour cells; SF-767, Glioma) | Mechanism of action (SF767 human tumour cells; SF-767, Glioma) | cholesterol levels [1, 3] | glucose levels [1, 3] | triglycerides levels [1, 3] |
| --- | --- | --- | --- | --- | --- | --- | --- | --- | --- | --- | --- | --- | --- | --- |
| 61 | 73 | CCCCCCCC/C=C\CCCCCCC(OC)C(=O)O (stereo not drawn) [MOOD, α-Methoxy-cis-Δ9-octadecenoic] | 65 | 64 | 279 | 142 | – | – | – | – | – | – | – | – |
| 47 | 52 | CCCCCCCC/C=C\CCCCCCC(O)C(=O)[O-].[Na+] (centres unmarked) [Na-OHOD] | 51 | 32 | 281 | 128 | – | – | – | – | – | – | – | – |
| 62 | 71 | CCCCCCCC/C=C\CCCCCCC(O)C(=O)O (stereo not drawn) [OHOD, α-Hydroxy-cis-Δ9-octadecenoic] | 55 | 38 | 292 | 146 | +++ | P D | total elimination of tumour cells | ++ | D | significant reductions | significant reductions | significant reductions |
